Key:
[1] = Half life in male Crl:CD Sprague-Dawley rat at 40 to 80 mg/kg/day, po or iv measured after 28 days; assay type: ADME, organism-based; conditions: in vivo, dose 40-80 mg/kg/day, time 28 day
[2] = Half life in F344/N Jcl-rnu rat at 40 to 80 mg/kg/day, po or iv measured after 28 days; assay type: ADME, organism-based; conditions: in vivo, dose 40-80 mg/kg/day, time 28 day
[3] = Oral bioavailability in male Crl:CD Sprague-Dawley rat at 40 to 80 mg/kg/day measured after 28 days; assay type: ADME, organism-based; conditions: in vivo, dose 40-80 mg/kg/day, time 28 day
[4] = Oral bioavailability in F344/N Jcl-rnu rat at 40 to 80 mg/kg/day measured after 28 days; assay type: ADME, organism-based; conditions: in vivo, dose 40-80 mg/kg/day, time 28 day
[5] = test system: RS4-11; test: Antitumor activity in human RS4-11 cells xenografted in mouse model assessed as tumor growth regression at 200 mg/kg,po relative to control; assay type: functional
[6] = test system: LNCaP; test: Antitumor activity in human LNCaP cells xenografted in mouse model assessed as tumor growth regression at 200 mg/kg,po relative to control; assay type: functional

Row | Compound | half-life [1] [h] | half-life [2] [h] | bioavailability [3] [%] | bioavailability [4] [%] | Activity [5] [%] | Activity [6] [%]
1 | COc1ccc(/C=C/c2nc(NCCCN(C)C)c3ccccc3n2)cc1 | 14 | 14 | 12 | 12 |  | 
2 | CC(C)(C)C[C@@H]1N[C@@H](C(=O)N[C@H]2CC[C@H](O)CC2)[C@H](c2cccc(Cl)c2F)[C@]12C(=O)Nc1cc(Cl)ccc12 [SAR-405838] |  |  |  |  | 100 | 80

— ChEMBL document CHEMBL5512606, “An overview of the functions of p53 and drugs acting either on wild- or mutant-type p53” (Eur J Med Chem, 2024)
